The conditions of data set [1]: NAC thiol/disulfide pair; Noszal et al. (2000); cited from earlier work.
The conditions of data set [2]: effects counter to those reported for NAC; Samstrand et al (1999); cited from earlier work.
The conditions of data set [3]: in vivo; cited from earlier work.
For data set [4], the system named is felines. As to conditions: felines (cat family); cited from earlier work.
The subject of data set [5] is dogs. The note with it: cited from earlier work.
The test system of data set [6] is fever. Kind of data set: Control of fever refractory to acetaminophen in a pediatric patient. The format is in vivo, human. As to conditions: standard maximum daily dose of acetaminophen. The text has this:
A pediatric patient receives a standard maximum daily dose of acetaminophen to control a fever, but the acetaminophen is ineffective. The patient receives the same standard maximum daily dose of acetaminophen in the form of an acetaminophen-N-acetylcysteine composition.

The test system of data set [7] is humans. The note with it: cited from earlier work.

The values below come from patent publication US20110014285A1, “N-ACETYL CYSTEINE COMPOSITIONS AND METHODS TO IMPROVE THE THERAPEUTIC EFFICACY OF ACETAMINOPHEN” (priority 2009, published 2011).

Where only a bound is given, the exact number is not on record here.

For the compound `CC(=O)N[C@@H](CS)C(=O)O` [NAC, N-acetylcysteine], in data set [1], the half-cell potential entry was “about +63 mV”.

`CC(=O)N[C@@H](CSSC[C@H](NC(C)=O)C(=O)O)C(=O)O` [oxidized form of NAC]: the “bioactive dose relative to NAC” value in data set [2] is on record as 10-100 fold less than NAC.

Consider `CC(=O)Nc1ccc(O)cc1` [acetaminophen, N-acetyl-para-aminophenol], for which, in data set [3], the binding to protein result was “only slightly” and the volume of distribution was 0.9 to 1.0 L/kg. Further, the “dose at which toxicity and death were demonstrated” value in data set [4] was 5 to 10 mg/kg. Also, the “dose at which toxicity is documented” value in data set [5] is listed as over 40 mg/kg. In addition, the control of fever result in data set [6] is listed as “ineffective”. Further, the “dose at which toxicity is documented” value in data set [7] was over 140 mg/kg.
